Reference: EP0012729A1, “Therapeutic compositions containing as active compound a substituted acetic acid or its salt” ("IBIS" ISTITUTO BIOCHIMICO SPERIMENTALE S.p.A., priority 1978, dated 1980)

Key:
rat = experiment: Prolonged administration for 180 consecutive days, tolerability; type: in vivo; conditions: 50 mg/kg/die for 180 consecutive days
[1] = Acute toxicity (DL50) in mus musculus; conditions: in vivo
Description: The DL50 for the α-methyl-α-(3,4-dihydro-1-naphtyl)acetic acid (1.620) determined in the mus musculus had the following values: • DL50 by oral administration = 1663 (1451-1905) mg/kg • DL50 by i.^p. administration = 1383 (1226-1559) mg/kg

[2] = Acute toxicity (DL50) in the rat; conditions: in vivo
Description: The determination in the rat gave the following values: • DL50 by oral administration = 1720 (1520-1921) mg/kg • DL50 by i.p. administration = 1339 (1270-1744) mg/kg

Wistar rats = experiment: Choleretic activity in the rat, bile fistula method; type: in vivo; conditions: for ml of bile flow ± s.e.: second series
Description: It is known that the primary effect of a choleretic agent is to increase the bile flow and the quantity of solid substances excreted with the bile. A good choleretic must provide this effect in a sufficiently intense and prolonged manner. In addition, as in the case of all drugs, it must have low acute toxicity and good general tolerability, but in particular must be free from toxic effects on the organ on which it is required to act, i.e. the liver, whether this is in a normal or pathological state. The analysis of the new product in comparison with the best known products for the same therapeutic use has therefore been focused on these aspects. The choleretic activity of the new product has been determined in the rat by using the bile fistula method. Wistar rats of both sexes and having a weight of between 180 and 240 g were used.
The animals, which were kept fasting for 12 hours but with free access to water, were narcotised by ethyl urethane in a dose of 1 g/kg by intra peritoneal or intramuscular injection.
After binding the animals to the retention bed, a median laparatomy was carried out, and when the bile duct had been isolated a cannula needle was inserted into it. A polythene tube was then inserted into those ani mals which were to receive the products intraduodenally, after which a su ture was carried out on the abdominal wall, and the bile was allowed to discharge for 30 minutes after inserting the cannula in the bile duct, so as to allow the discharge to become normal. The bile was then collec ted for one hour.
Having determined the volume of bile discharged during this first hour of collection (base volume), the products under examination were administered at the predetermined doses and by the predetermined methods. The bile excreted by the individual animals was then collected over each hour for a further six hours.
During the experiments, the animals were kept at ambient temperature of about 22°C, and at regular intervals of two hours received 10 ml/kg of physiological solution s.c.
The liquids were administered at a temperature of 37°C.
The bile flow and cholesterol excretion were determined on those bile fractions excreted by the animals over each hour starting from the base hour until the end of the experiment
The dry residue (R.So) was determined on the bile fraction excreted during the base hour and on the total bile fractions excreted during the sub sequent hours. For practical reasons, the determination of the dry residue and of the cholesterol (carried out by the Sperry & Webb method) were carried out on the pool of bile excreted by the entire group of animals subjected to the same treatment instead of on the bile fractions excreted by the individual animals (which was sometimes insufficient for determining the cholesterol).
In compiling the graphs, the differences between the choleresis in the treated animals and that in the controls was calculated over the considered time intervals, and expressed as a percentage of the base choleresis. For this calculation, the following formula was used: [formula] where Cn and C' represent the choleresis (in ml/kg/h for the bile flow, and in mg/kg/h for the dry residue) determined over the considered time interval for the group of treated animals and the group of controls respectively. Cb and C'b represent the base choleresis in the group of treated animals and group of controls respectively.
This index was calculated as the time for halving the maximum choleresis increase recorded under their effect.

[3] = ip, read-out: DL50 by i.p. administration
[4] = oral, read-out: DL50 by oral administration

## CC(C(=O)O)C1=CCCc2ccccc21 (stereo not drawn) [1.620, α-methyl-α-(3,4-dihydro-1-naphthyl)-acetic acid]
rat
  Tolerability on prolonged administration: well tolerated
[1]; [3]
  LD50: 1380 mg/kg
[1]; [4]
  LD50: 1660 mg/kg
[2]; [3]
  LD50: 1340 mg/kg
[2]; [4]
  LD50: 1720 mg/kg
Wistar rats; 25 mg/kg i.d., 0 (base hour)
  Flow: 2,66±0,16 ml/kg/h
Wistar rats; 25 mg/kg i.d., 1 h
  Flow: 4,24±0,25 ml/kg/h
Wistar rats; 25 mg/kg i.d., 2 h
  Flow: 3,21±0,10 ml/kg/h
Wistar rats; 25 mg/kg i.d., 3 h
  Flow: 2,89±0,10 ml/kg/h
Wistar rats; 25 mg/kg i.d., 4 h
  Flow: 2,44±0,15 ml/kg/h
Wistar rats; 25 mg/kg i.d., 5 h
  Flow: 2,20±0,14 ml/kg/h
Wistar rats; 25 mg/kg i.d., 6 h
  Flow: 1,68±0,05 ml/kg/h
Wistar rats; 25 mg/kg p.o., 0 (base hour)
  Flow: 3,05±0,33 ml/kg/h
Wistar rats; 25 mg/kg p.o., 1h
  Flow: 3,89±0,47 ml/kg/h
Wistar rats; 25 mg/kg p.o., 2h
  Flow: 3,13±0,24 ml/kg/h
Wistar rats; 25 mg/kg p.o., 3h
  Flow: 2,84±0,21 ml/kg/h
Wistar rats; 25 mg/kg p.o., 4h
  Flow: 2,35±0,19 ml/kg/h
Wistar rats; 25 mg/kg p.o., 5h
  Flow: 2,05±0,21 ml/kg/h
Wistar rats; 25 mg/kg p.o., 6h
  Flow: 1,87±0,39 ml/kg/h
Wistar rats; 50 mg/kg i.d., 0 (base hour)
  Flow: 2,04±0,11 ml/kg/h
Wistar rats; 50 mg/kg i.d., 1 h
  Flow: 3,90±0,28 ml/kg/h
Wistar rats; 50 mg/kg i.d., 2 h
  Flow: 3,57±0,16 ml/kg/h
Wistar rats; 50 mg/kg i.d., 3 h
  Flow: 2,69±0,09 ml/kg/h
Wistar rats; 50 mg/kg i.d., 4 h
  Flow: 2,20±0,07 ml/kg/h
Wistar rats; 50 mg/kg i.d., 5 h
  Flow: 2,00±0,10 ml/kg/h
Wistar rats; 50 mg/kg i.d., 6 h
  Flow: 1,63±0,08 ml/kg/h
Wistar rats; 50 mg/kg p.o., 0 (base hour)
  Flow: 2,76±0,09 ml/kg/h
Wistar rats; 50 mg/kg p.o., 1h
  Flow: 4,90±0,16 ml/kg/h
Wistar rats; 50 mg/kg p.o., 2h
  Flow: 3,74±0,13 ml/kg/h
Wistar rats; 50 mg/kg p.o., 3h
  Flow: 3,34±0,13 ml/kg/h
Wistar rats; 50 mg/kg p.o., 4h
  Flow: 2,73±0,07 ml/kg/h
Wistar rats; 50 mg/kg p.o., 5h
  Flow: 2,60±0,08 ml/kg/h
Wistar rats; 50 mg/kg p.o., 6h
  Flow: 2,25±0,09 ml/kg/h
Wistar rats; 100 mg/kg i.d., 0 (base hour)
  Flow: 2,53±0,09 ml/kg/h
Wistar rats; 100 mg/kg i.d., 1 h
  Flow: 6,61±0,27 ml/kg/h
Wistar rats; 100 mg/kg i.d., 2 h
  Flow: 5,94±0,23 ml/kg/h
Wistar rats; 100 mg/kg i.d., 3 h
  Flow: 4,12±0,14 ml/kg/h
Wistar rats; 100 mg/kg i.d., 4 h
  Flow: 3,23±0,07 ml/kg/h
Wistar rats; 100 mg/kg i.d., 5 h
  Flow: 2,74±0,06 ml/kg/h
Wistar rats; 100 mg/kg i.d., 6 h
  Flow: 2,23±0,06 ml/kg/h
Wistar rats; 100 mg/kg p.o., 0 (base hour)
  Flow: 2,40±0,23 ml/kg/h
Wistar rats; 100 mg/kg p.o., 1h
  Flow: 4,44±0,28 ml/kg/h
Wistar rats; 100 mg/kg p.o., 2h
  Flow: 4,95±0,39 ml/kg/h
Wistar rats; 100 mg/kg p.o., 3h
  Flow: 4,10±0,32 ml/kg/h
Wistar rats; 100 mg/kg p.o., 4h
  Flow: 3,10±0,31 ml/kg/h
Wistar rats; 100 mg/kg p.o., 5h
  Flow: 2,79±0,23 ml/kg/h
Wistar rats; 100 mg/kg p.o., 6h
  Flow: 2,33±0.25 ml/kg/h
Wistar rats; 200 mg/kg p.o. (dose given for 1620 only)
  Peak choleresis time of appearance: 2nd hour
Wistar rats; 200 mg/kg p.o. (dose given for 1620 only), increase over controls as percentage of base choleresis
  Peak choleresis % increase: 135%
Wistar rats; 200 mg/kg p.o. (dose given for 1620 only), time for halving the maximum choleresis increase
  Duration index: 240'
Wistar rats; 200 mg/kg p.o., 0 (base hour)
  Flow: 2,46±0,12 ml/kg/h
Wistar rats; 200 mg/kg p.o., 1h
  Flow: 5,53±0,30 ml/kg/h
Wistar rats; 200 mg/kg p.o., 2h
  Flow: 5,78±0,29 ml/kg/h
Wistar rats; 200 mg/kg p.o., 3h
  Flow: 5,02±0,34 ml/kg/h
Wistar rats; 200 mg/kg p.o., 4h
  Flow: 4,77±0,57 ml/kg/h
Wistar rats; 200 mg/kg p.o., 5h
  Flow: 4,19±0,25 ml/kg/h
Wistar rats; 200 mg/kg p.o., 6h
  Flow: 3,39±0,14 ml/kg/h
Wistar rats; oral by gastric probe 25 mg/kg, 0 (base values)
  ml of bile flow ± s.e.: 2,6±0,20 ml
Wistar rats; oral by gastric probe 25 mg/kg, 1 h
  ml of bile flow ± s.e.: 3,2±0,14 ml
Wistar rats; oral by gastric probe 25 mg/kg, 2 h
  ml of bile flow ± s.e.: 2,7±0,10 ml
Wistar rats; oral by gastric probe 25 mg/kg, 3 h
  ml of bile flow ± s.e.: 2,6±0,21 ml
Wistar rats; oral by gastric probe 25 mg/kg, 4 h
  ml of bile flow ± s.e.: 1,9±0,11 ml
Wistar rats; oral by gastric probe 25 mg/kg, 5 h
  ml of bile flow ± s.e.: 1,6±0,20 ml
Wistar rats; oral by gastric probe 25 mg/kg, 6 h
  ml of bile flow ± s.e.: 1,6±0,21 ml
Wistar rats; oral by gastric probe 50 mg/kg, 0 (base values)
  ml of bile flow ± s.e.: 2,8±0,19 ml
Wistar rats; oral by gastric probe 50 mg/kg, 1 h
  ml of bile flow ± s.e.: 3,7±0,31 ml
Wistar rats; oral by gastric probe 50 mg/kg, 2 h
  ml of bile flow ± s.e.: 3,4±0,22 ml
Wistar rats; oral by gastric probe 50 mg/kg, 3 h
  ml of bile flow ± s.e.: 3,2±0,19 ml
Wistar rats; oral by gastric probe 50 mg/kg, 4 h
  ml of bile flow ± s.e.: 3,0±0,18 ml
Wistar rats; oral by gastric probe 50 mg/kg, 5 h
  ml of bile flow ± s.e.: 2,8±0,14 ml
Wistar rats; oral by gastric probe 50 mg/kg, 6 h
  ml of bile flow ± s.e.: 2,2±0,18 ml
Wistar rats; oral by gastric probe 100 mg/kg, 0 (base values)
  ml of bile flow ± s.e.: 2,5±0,16 ml
Wistar rats; oral by gastric probe 100 mg/kg, 1 h
  ml of bile flow ± s.e.: 4,8±0,26 ml
Wistar rats; oral by gastric probe 100 mg/kg, 2 h
  ml of bile flow ± s.e.: 3,7±0,31 ml
Wistar rats; oral by gastric probe 100 mg/kg, 3 h
  ml of bile flow ± s.e.: 3,5±0,20 ml
Wistar rats; oral by gastric probe 100 mg/kg, 4 h
  ml of bile flow ± s.e.: 3,2±0,32 ml
Wistar rats; oral by gastric probe 100 mg/kg, 5 h
  ml of bile flow ± s.e.: 2,9±0,22 ml
Wistar rats; oral by gastric probe 100 mg/kg, 6 h
  ml of bile flow ± s.e.: 2,7±0,23 ml
